In patent US20100152140A1, “Method of Cancer Treatment with Naphthol Analogs” (priority 2007, published 2010):

Key:
[1] = tested on: NSCLC cells (H1734, H226, A549, H292); experiment: MTT assay, NSCLC cell lines; format: cell-based, human
Protocol: (§1) The cytotoxic activity of Ro-31-8220 was also determined against the all four NSCLC cells and NHTBE cells. Briefly, the cells (2,000/well) were incubated in triplicate in 96-well plates in the presence or absence of indicated test samples in a final volume of 0.2 ml for different days at 37° C. Afterwards, we performed the MTT assay.

[2] = tested on: interleukin-6; conditions: human cord blood-derived mast cells, mouse bone marrow-derived mast cells; cited from earlier work
[3] = tested on: CREB; experiment: Western blot of p-CREB (CREB activation) in H1734 cells; format: cell-based, human; conditions: serum free media, time course and various concentrations for 4 h
Protocol: (§2) Western Blot Analysis. Protein extracts from each of NSCLC cells and the NHTBE cells, were prepared by lysing the cells in SDS lysis buffer (250 mM Tris-Cl, pH 6.5, 2% SDS, 4% β-mercaptoethanol, 0.02% bromophenol blue, 10% glycerol) containing protease and phosphatase inhibitors. Standard SDS-PAGE and Western blotting procedures were used to analyze the cell extracts. Nitrocellulose blots were probed with anti-CREB and anti-phospho-specific pSer-133 CREB (Upstate Biotechnology, Waltham, Mass.); anti-Bcl-2, anti-Bcl-XL, anti-phospho-Erk1/2, and anti-Erk1/2 (Santa Cruz Biotechnology, Santa Cruz, Calif.); and anti-phospho-Rsk and anti-Rsk (Cell Signaling Technology, Cambridge, Mass.). To detect the cleavage products of apoptosis, nitrocellulose blots were probed with anti-poly (ADP-ribose) polymerase (PARP), anti-caspase-9, and anti-caspase-3 antibodies (New England Biolabs, Beverly, Mass.). Anti-actin antibodies were purchased from Sigma-Aldrich (St. Louis, Mo.) and the caspase-3 inhibitor Ac-DEVD-CHO was obtained from Promega (Madison, Wis.).

[4] = tested on: U937 human leukemia cells; conditions: cited from earlier work
[5] = tested on: CRE consensus oligonucleotide binding; experiment: EMSA of CRE consensus oligonucleotide binding, H1734 nuclear extracts; format: cell-based, human; conditions: serum free media
Protocol: Electrophoretic Mobility Shift Assay. Isolation of nuclear extracts, sequences, preparation of oligonucleotide probes, electrophoretic mobility shift assay (EMSA) was conducted as previously described (19).

[6] = tested on: NHTBE cells; experiment: MTT assay, NHTBE cells; format: cell-based, human; conditions: NHTBE cells compared with NSCLC cells
Protocol: as §1

[7] = tested on: phospho-Erk1/2; experiment: Western blot of phospho-Erk1/2 in H1734 cells; format: cell-based, human
Protocol: as §2

[8] = tested on: H1734 cells; experiment: Flow cytometric cell cycle analysis; format: cell-based, human; conditions: H1734, 10 μM
Protocol: Flow Cytometric Analysis. H1734 cells were first synchronized by serum starvation overnight and then exposed to Ro-31-8220 for different lengths of time in the presence of 5% serum. The cells were washed, trypsinized, and fixed in 70% ethanol for 1 h at −20° C. Finally, cells were washed with PBS, resuspended, and stained in PBS containing 25 μg of propidium iodide and 1 μg/ml RNAase a for 30 min at room temperature. The distribution of cells during the cell cycle was then analyzed with a Facscalibur flow cytometer (Becton Dickinson, Bedford, Mass.).

[9] = tested on: H1734 cells; experiment: TUNEL apoptosis assay; format: cell-based, human; conditions: H1734, 5 μM, 48 h
Protocol: Apoptosis Assay. H1734 cells (200,000) were plated in chamber slides; the next day, transfected with CREBwt, KCREB, and CREB133 DNA (100 ng/chamber), and with 100 nM siCREB. The terminal transferase dUTP nick end labeling (TUNEL) assay was performed according to the manufacturer's instructions (Promega). Briefly, the cells were fixed after 48 h of transfection in 4% formaldehyde and permeabilized with 0.5% Triton-X-100. The cells were incubated on the slides with terminal deoxynucleotidyl transferase and fluorescein-dUTP. They were then co-stained with DAPI and visualized with an Axioskop 40 fluorescence microscope (Carl Zeiss, Thornwood, N.Y.). Three fields were randomly counted for each sample. The images were captured at a magnification of 400× and stored using Axiovision software (Carl Zeiss), as described in the instructions provided by the manufacturer.

[10] = tested on: pCREB; experiment: Immunocytochemistry for pCREB localization in H1734 cells; format: cell-based, human; conditions: 20 μM, 4 h, serum free media
Protocol: Immunocytochemistry for CREB Localization. H1734 cells (1×10^5 cells/ml) were plated on a glass chamber slide (Falcon; BD Biosciences, San Jose, Calif.) for adherence and treated the next day for 4 h with Ro-31-8220. The chambers were removed, and cells were fixed with cold acetone. After a brief washing in PBS, the slides were blocked with 5% normal goat serum in PBS for 1 h and then incubated for 4 h with rabbit polyclonal anti-pCREB antibody (dilution, 1:100). The slides were washed, incubated with goat anti-rabbit IgG-Alexa 594 (Molecular Probes, Eugene, Oreg.) (dilution 1:100) for 1 h, and counter-stained for nuclei with 4′,6-diamidino-2-phenylindole, dihydrochloride (DAPI; 50 ng/ml) (Molecular Probes, Eugene, Oreg.) for 15 min. The slides were mounted with a mounting medium (Sigma-Aldrich), and confocal images were captured with an Olympus FV500 confocal microscope (NY) by using a Plan Apo 60× oil objective.

[11] = tested on: phospho-Rsk; experiment: Western blot of phospho-Rsk in H1734 cells; format: cell-based, human; conditions: serum free media
Protocol: as §2

[12] = tested on: H226 cells; experiment: Soft agar colony assay, H226; format: cell-based, human; conditions: H226, 2 μM, 28 days
Protocol: (§3) Soft Agar Colony Assay. Single-cell suspensions of the H1734 and H226 cells were treated with or without different concentrations of Ro-31-8220 and then mixed with agarose to a final concentration of 0.35%. Aliquots of 1.5 ml containing 10^4 cells and 10% fetal calf serum were plated in triplicate in six-well plates over a base layer of 0.7% agarose and allowed to gel. The number of colonies that were greater than 60 μm was counted after 28 days of incubation.

[13] = tested on: H1734 cells; experiment: Soft agar colony assay, H1734; format: cell-based, human; conditions: H1734, 2 μM, 28 days
Protocol: as §3

[14] = tested on: H1734 cells; experiment: Western blot of apoptosis cleavage products (PARP, caspase-9, caspase-3); format: cell-based, human
Protocol: as §2

[15] = tested on: nuclear transcription factor kappa B-dependent transcription; conditions: pulmonary A549 cells; cited from earlier work
[16] = tested on: H1734 cells; experiment: MTT viability, protection from Ro-31-8220 induced cytotoxicity; format: cell-based, human; conditions: H1734, inhibitor 2 h then 20 μM Ro-31-8220, 24 h
Protocol: as §1

O=S(=O)(NCCNC/C=C/c1ccc(Br)cc1)c1cccc2cnccc12 [H-89]
cell growth of NSCLC cell lines ([1]; compared with Ro-31-8220): not significantly inhibiting the cell growth

Cn1cc(C2=C(c3cn(CCCSC(=N)N)c4ccccc34)C(=O)NC2=O)c2ccccc21 [Ro-31-8220, 2-{1-[3-(Amidinothio)propyl]-1H-indol-3-yl}-3-(1-methylindol-3-yl)maleimide]
autocrine growth factor interleukin-6 [2]: suppress
CREB activation (p-CREB) [3]: substantially suppressed
apoptosis in U937 human leukemia cells [4]: induces apoptosis
proliferation of U937 human leukemia cells [4]: suppressed the proliferation
CRE consensus oligonucleotide binding [5]: suppressed in a time dependent and dose dependent manner
suppression of mitochondrial activity (MTT) [6]: significantly less than that in the NSCLC cells
time to start of decrease of phospho-Erk1/2 expression [7]: ≤ 30 min
concentration at which decrease of phospho-Erk1/2 began ([7]; 4 h): 5 µM
percentage of cells in the G2 phase ([8]; 6 h, controls 18%): 24.5%
percentage of cells in G2 phase ([8]; 24 h, controls 15%): 53%
cells in which apoptosis was induced (TUNEL) [9]: 52%
nuclear pCREB localization [10]: induced the nuclear disappearance of pCREB
concentration at which decrease of phospho-Rsk began ([11]; 4 h): 5 µM
time to suppression of phospho-Rsk [11]: ≤ 2 h
decrease in colony formation [12]: 85%
decrease in colony formation [13]: 85%
mitochondrial activity (MTT), cell growth ([1]; all four NSCLC cell lines, dose-dependent): suppressed mitochondrial activity
PARP cleavage ([14]; H1734, 20 μM Ro-31-8220): cleavage of a 118-kDa PARP protein into an 87-kDa fragment
caspase-9 activation ([14]; H1734, 20 μM Ro-31-8220, 47-kDa to 37-kDa band): time-dependent activation
caspase-3 activation ([14]; H1734, 20 μM Ro-31-8220, 24 h): activation of caspase-3
NF-kappa B-dependent transcription [15]: suppress

CC(=O)N[C@@H](CC(=O)O)C(=O)N[C@@H](CCC(=O)O)C(=O)N[C@H](C(=O)N[C@H](C=O)CC(=O)O)C(C)C [Ac-DEVD-CHO]
protection from Ro-31-8220 induced cytotoxicity [16]: protected the cells
